Tests used:
[1] = test system: human hepatocytes; assay: Metabolite identification in human hepatocyte suspension; settings: 5-MeO-DMT free base 10 μM, incubated up to 120 minutes
Description: For incubations with cryopreserved hepatocytes, the 2 mM stock solution was diluted with Leibovitz L-15 medium to a concentration of 20 μM or 2 μM. An aliquot (250 μL) of the 20 μM and 2 μM test substance formulations was added to each hepatocyte incubation sample (250 μL), as appropriate, so that the final test substance concentration in the incubations was 10 μM or 1 μM, respectively, and incubations contained less than 1% (v/v) solvent.
Incubations were performed at ca. 37° C. in a shaking water bath (total incubation volume 0.5 mL). For 1 μM, incubations were terminated after 0, 5, 10, 20, 30, 60 and 120 minutes, by the addition of ice-cold acetonitrile (0.5 mL).
The samples were vortex mixed and centrifuged at ca 13,000 rpm for 10 minutes at room temperature. Following centrifugation, the protein-free supernatants were removed for analysis.
Blank control incubations were carried out with Leibovitz L-15 medium in place of the test substance. No cells control samples were performed with Leibovitz L-15 medium in place of hepatocytes. Aliquots of the blank control samples were taken at 120 minutes, while no cells control samples were taken at 0, 30 and 120 for 1 μM incubations and at 0 and 120 minutes for 10 μM incubations.
All 1 μM incubations were performed in duplicate, while all 10 μM incubations were performed in singlet. All samples were stored at −80° C. (nominal) prior to analysis.
Prior to sample analysis a 100 μL aliquot of each sample was evaporated to near dryness under a steady stream of nitrogen at room temperature, and subsequently reconstituted in 50 μL of mobile phase A (0.1% formic acid in water). Each sample (0, 30 and 120-minute, 10 μM) was analysed using accurate mass LC-MS to determine relative levels of parent compound at each time-point, and determine the profile of metabolites formed. Appropriate blank and control samples were also analysed. The 10 and 60-minute, 10 μM incubation samples were not analysed and were stored at −80° C. (nominal). […]

[2] = Metabolic stability in Hμrel human hepatocyte co-culture; settings: human
[3] = test system: human hepatocytes (Hμrel HumanPool co-culture); assay: as above
[4] = biological target: T1, 5-HT2A receptors (Homo sapiens, UniProt P28223); assay: Radioligand ([3H]MDL-100,907) binding to 5-HT2A receptors in post-mortem human frontal cortex membranes
T1 construct: frontal cortical membranes (400 μl; equivalent 4 mg wet weight tissue/tube) was incubated with 50 μl of 0.1 nM; tissue Edinburgh Sudden Death Brain Bank; host or cells: post-mortem human frontal cortex membranes
T1 sequence (P28223 whole entry): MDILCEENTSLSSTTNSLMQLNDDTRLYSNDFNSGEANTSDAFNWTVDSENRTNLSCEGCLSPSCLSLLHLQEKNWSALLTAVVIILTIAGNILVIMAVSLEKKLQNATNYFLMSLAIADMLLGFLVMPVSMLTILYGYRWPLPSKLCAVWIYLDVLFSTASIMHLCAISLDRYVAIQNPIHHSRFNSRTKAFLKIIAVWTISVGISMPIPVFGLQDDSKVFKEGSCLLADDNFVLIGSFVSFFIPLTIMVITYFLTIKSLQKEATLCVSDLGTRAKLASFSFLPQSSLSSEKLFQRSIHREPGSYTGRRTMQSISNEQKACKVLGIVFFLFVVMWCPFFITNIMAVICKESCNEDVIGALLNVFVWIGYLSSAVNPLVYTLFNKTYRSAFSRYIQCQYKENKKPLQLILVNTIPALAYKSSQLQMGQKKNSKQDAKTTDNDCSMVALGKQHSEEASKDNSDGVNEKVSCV

[5] = biological target: T2, 5-HT1A receptors (Homo sapiens, UniProt P08908); assay: Radioligand ([3H]8-OH-DPAT) binding to 5-HT1A receptors in post-mortem human hippocampus membranes
T2 construct: hippocampal membranes (400 μl; equivalent 1.25 mg wet weight tissue/tube) were incubated with 50 μl of 0.6 nM; tissue Edinburgh Sudden Death Brain Bank; host or cells: post-mortem human hippocampus membranes
T2 sequence (P08908 1-422): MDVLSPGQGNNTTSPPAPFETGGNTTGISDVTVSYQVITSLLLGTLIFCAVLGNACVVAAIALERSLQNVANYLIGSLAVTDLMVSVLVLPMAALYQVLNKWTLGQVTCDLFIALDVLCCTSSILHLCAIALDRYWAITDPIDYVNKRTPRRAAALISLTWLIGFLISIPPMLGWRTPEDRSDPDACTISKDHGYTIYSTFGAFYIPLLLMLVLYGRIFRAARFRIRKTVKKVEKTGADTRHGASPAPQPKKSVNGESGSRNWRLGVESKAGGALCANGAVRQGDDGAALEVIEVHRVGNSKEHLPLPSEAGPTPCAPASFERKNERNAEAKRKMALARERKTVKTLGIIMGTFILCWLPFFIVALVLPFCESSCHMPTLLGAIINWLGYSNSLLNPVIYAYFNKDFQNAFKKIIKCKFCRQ

COc1ccc2[nH]cc(CCO)c2c1 [5-methoxytryptophol, 5-Methoxyindole-3-ethanol]
Relative Proportion of compounds identified [1]: 25%
half-life at 1 µM [2]: 142 min
hepatocyte CLint at 1 µM [2]: 16.2 µL/min/1e6 cells
Disappearance with stromal cell controls ([3]; 0-72 h): no disappearance
Relative LC/MS peak area remaining ([3]; 1 μM Hepatocytes, 0 h): 100%
Relative LC/MS peak area remaining ([3]; 1 μM Hepatocytes, 1 h): 79%
Relative LC/MS peak area remaining ([3]; 1 μM Hepatocytes, 2 h): 57%
Relative LC/MS peak area remaining ([3]; 1 μM Hepatocytes, 4 h): 33%
Relative LC/MS peak area remaining ([3]; 1 μM Hepatocytes, 8 h): 10%
Relative LC/MS peak area remaining ([3]; 1 μM Hepatocytes, 24 h): 0%
Relative LC/MS peak area remaining ([3]; 1 μM Hepatocytes, 48 h): 0%
Relative LC/MS peak area remaining ([3]; 1 μM Hepatocytes, 72 h): 0%
Relative LC/MS peak area remaining ([3]; 1 μM Stromal cells, 0 h): 100%
Relative LC/MS peak area remaining ([3]; 1 μM Stromal cells, 4 h): 97%
Relative LC/MS peak area remaining ([3]; 1 μM Stromal cells, 8 h): 107%
Relative LC/MS peak area remaining ([3]; 1 μM Stromal cells, 24 h): 94%
Relative LC/MS peak area remaining ([3]; 1 μM Stromal cells, 48 h): 102%
Relative LC/MS peak area remaining ([3]; 1 μM Stromal cells, 72 h): 104%
Relative LC/MS peak area remaining ([3]; 10 μM Hepatocytes, 0 h): 100%
Relative LC/MS peak area remaining ([3]; 10 μM Hepatocytes, 1 h): 87%
Relative LC/MS peak area remaining ([3]; 10 μM Hepatocytes, 2 h): 81%
Relative LC/MS peak area remaining ([3]; 10 μM Hepatocytes, 4 h): 68%
Relative LC/MS peak area remaining ([3]; 10 μM Hepatocytes, 8 h): 42%
Relative LC/MS peak area remaining ([3]; 10 μM Hepatocytes, 24 h): 1%
Relative LC/MS peak area remaining ([3]; 10 μM Hepatocytes, 48 h): 0%
Relative LC/MS peak area remaining ([3]; 10 μM Hepatocytes, 72 h): 0%
Relative LC/MS peak area remaining ([3]; 10 μM Stromal cells, 0 h): 100%
Relative LC/MS peak area remaining ([3]; 10 μM Stromal cells, 4 h): 99%
Relative LC/MS peak area remaining ([3]; 10 μM Stromal cells, 8 h): 105%
Relative LC/MS peak area remaining ([3]; 10 μM Stromal cells, 24 h): 86%
Relative LC/MS peak area remaining ([3]; 10 μM Stromal cells, 48 h): 98%
Relative LC/MS peak area remaining ([3]; 10 μM Stromal cells, 72 h): 104%
Metabolic turnover in the presence of hepatocytes ([3]; 24h): complete disappearance
Predicted hepatic extraction ratio ([3]; human): 67%

CN(C)CCc1c[nH]c2ccccc12 [DMT, N,N-dimethyltryptamine]
Ki [4]: 117 nM

CN(C)CCc1c[nH]c2cccc(O)c12 [psilocin]
Ki [5]: 48 nM

Reference: patent publication US20240108601A1, “TREATMENT OF MENTAL DISORDERS” (GH Research Ireland Limited, priority 2022, published 2024)
